Laboratory results: US11382888B2, “Combination of topical medications for the treatment of skin diseases and methods of use” (American University of Beirut, priority 2019, dated 2022)

Key:
[1] = general statement, no test described; cited from earlier work
patients with ARCI = assay: Left sided vs right sided trial of the lovastatin-cholesterol combination cream in ARCI patients; assay type: in vivo, human; design: Erythema / Total score: scale not given here; conditions: left side glycolic acid only, right side also combination cream
From the text: Each patient was given a severity score based on 5 criteria: (1) skin thickness and/or scaling; (2) pain, pruritus, and/or discomfort; (3) erythema; (4) impact of the condition on the ability to perform daily functions; and (5) the patient's subjective severity scoring, i.e., the patient's own assessment of the severity of the condition.
Five patients applied the combination cream of lovastatin and cholesterol on the right side of the body only, while the glycolic acid was applied to both sides (patients 1, 2, 3, 4, and 6).

Compound: CC(=O)N1CCN(c2ccc(OCC3COC(Cn4ccnc4)(c4ccc(Cl)cc4Cl)O3)cc2)CC1 (racemic) [Ketoconazole, 1-acetyl-4-[4-[[2-(2,4-dichlorophenyl)-2-[(1H-imidazol-1-yl)-methyl]-1,3-dioxolan-4-yl]methoxy]phenyl]piperazine]
- solubility [1]: low solubility

Compound: O=C(O)CO [glycolic acid, hydroxyacetic acid]
- % change (patients with ARCI; patient 1, at 2 months vs baseline total score): −5.4545%
- Ability to perform daily functions (patients with ARCI; patient 1, at 2 months): 5
- Erythema (patients with ARCI; patient 1, at 2 months): 9
- Pain/pruritis/discharge (patients with ARCI; patient 1, at 2 months): 6
- Patient severity scoring (patients with ARCI; patient 1, at 2 months): 17
- Response (patients with ARCI; patient 1, at 2 months): Mild
- Skin thickness/scaling (patients with ARCI; patient 1, at 2 months): 15
- Total score (patients with ARCI; patient 1, at 2 months): 52
- % change (patients with ARCI; patient 1, at 3 months vs baseline total score): −54.545%
- Ability to perform daily functions/to move (patients with ARCI; patient 1, at 3 months): 2
- Erythema (patients with ARCI; patient 1, at 3 months): 4
- Pain/pruritis/discharge (patients with ARCI; patient 1, at 3 months): 2
- Patient severity scoring (patients with ARCI; patient 1, at 3 months): 8
- Skin thickness/scaling (patients with ARCI; patient 1, at 3 months): 9
- Total score (patients with ARCI; patient 1, at 3 months): 25
- % change (patients with ARCI; patient 2, at 2 months vs baseline total score): −12%
- Ability to perform daily functions (patients with ARCI; patient 2, at 2 months): 5
- Erythema (patients with ARCI; patient 2, at 2 months): 6
- Pain/pruritis/discharge (patients with ARCI; patient 2, at 2 months): 6
- Patient severity scoring (patients with ARCI; patient 2, at 2 months): 17
- Response (patients with ARCI; patient 2, at 2 months): Mild
- Skin thickness/scaling (patients with ARCI; patient 2, at 2 months): 10
- Total score (patients with ARCI; patient 2, at 2 months): 44
- % change (patients with ARCI; patient 2, at 3 months vs baseline total score): −58%
- Ability to perform daily functions/to move (patients with ARCI; patient 2, at 3 months): 2
- Erythema (patients with ARCI; patient 2, at 3 months): 4
- Pain/pruritis/discharge (patients with ARCI; patient 2, at 3 months): 4
- Patient severity scoring (patients with ARCI; patient 2, at 3 months): 5
- Skin thickness/scaling (patients with ARCI; patient 2, at 3 months): 6
- Total score (patients with ARCI; patient 2, at 3 months): 21
- % change (patients with ARCI; patient 3, at 2 months vs baseline total score): −3.7037%
- Ability to perform daily functions (patients with ARCI; patient 3, at 2 months): 3
- Erythema (patients with ARCI; patient 3, at 2 months): 3
- Pain/pruritis/discharge (patients with ARCI; patient 3, at 2 months): 3
- Patient severity scoring (patients with ARCI; patient 3, at 2 months): 10
- Response (patients with ARCI; patient 3, at 2 months): Mild
- Skin thickness/scaling (patients with ARCI; patient 3, at 2 months): 7
- Total score (patients with ARCI; patient 3, at 2 months): 26
- % change (patients with ARCI; patient 3, at 3 months vs baseline total score): −40.7407%
- Ability to perform daily functions/to move (patients with ARCI; patient 3, at 3 months): 1
- Erythema (patients with ARCI; patient 3, at 3 months): 2
- Pain/pruritis/discharge (patients with ARCI; patient 3, at 3 months): 2
- Patient severity scoring (patients with ARCI; patient 3, at 3 months): 7
- Response (patients with ARCI; patient 3, at 3 months): Good
- Skin thickness/scaling (patients with ARCI; patient 3, at 3 months): 4
- Total score (patients with ARCI; patient 3, at 3 months): 16
- % change (patients with ARCI; patient 4, at 2 months vs baseline total score): −41.818%
- Ability to perform daily functions (patients with ARCI; patient 4, at 2 months): 3
- Erythema (patients with ARCI; patient 4, at 2 months): 9
- Pain/pruritis/discharge (patients with ARCI; patient 4, at 2 months): 4
- Patient severity scoring (patients with ARCI; patient 4, at 2 months): 8
- Response (patients with ARCI; patient 4, at 2 months): Good
- Skin thickness/scaling (patients with ARCI; patient 4, at 2 months): 8
- Total score (patients with ARCI; patient 4, at 2 months): 32
- % change (patients with ARCI; patient 4, at 3 months vs baseline total score): −65.455%
- Ability to perform daily functions/to move (patients with ARCI; patient 4, at 3 months): 2
- Erythema (patients with ARCI; patient 4, at 3 months): 4
- Pain/pruritis/discharge (patients with ARCI; patient 4, at 3 months): 2
- Patient severity scoring (patients with ARCI; patient 4, at 3 months): 5
- Skin thickness/scaling (patients with ARCI; patient 4, at 3 months): 6
- Total score (patients with ARCI; patient 4, at 3 months): 19
- % change (patients with ARCI; patient 6, at 2 months vs baseline total score): −7.353%
- Ability to perform daily functions (patients with ARCI; patient 6, at 2 months): 10
- Erythema (patients with ARCI; patient 6, at 2 months): 13
- Pain/pruritis/discharge (patients with ARCI; patient 6, at 2 months): 8
- Patient severity scoring (patients with ARCI; patient 6, at 2 months): 17
- Response (patients with ARCI; patient 6, at 2 months): Mild
- Skin thickness/scaling (patients with ARCI; patient 6, at 2 months): 15
- Total score (patients with ARCI; patient 6, at 2 months): 63
- % change (patients with ARCI; patient 6, at 3 months vs baseline total score): −10.2941%
- Ability to perform daily functions/to move (patients with ARCI; patient 6, at 3 months): 10
- Erythema (patients with ARCI; patient 6, at 3 months): 13
- Pain/pruritis/discharge (patients with ARCI; patient 6, at 3 months): 7
- Patient severity scoring (patients with ARCI; patient 6, at 3 months): 17
- Response (patients with ARCI; patient 6, at 3 months): Mild
- Skin thickness/scaling (patients with ARCI; patient 6, at 3 months): 14
- Total score (patients with ARCI; patient 6, at 3 months): 61
